Source: PMC8355244, “A fragment-based approach identifies an allosteric pocket that impacts malate dehydrogenase activity” (Communications Biology, 2021)
Values joined by “and” are separate entries in the source; they are usually repeats but may differ in a detail not shown here. Equal entries are not always repeated. Where two headings read alike, the source gives them in different places.

How the values were obtained:
PfMDH [1] = molecular target: T1, PfMDH (Plasmodium falciparum, UniProt Q6VVP7); settings: Supplementary Table 2; ref 10.1021/jm070336k; cited from earlier work
T1 construct: The full-length WT PfMDH gene was cloned into pETM-13; made in house; host or cells: E. coli Rosetta 2 (DE3) pLysS

HsMDH2 = settings: Supplementary Table 1, cited from earlier work
HsMDH1 = test system: HsMDH1; parameters: method as in earlier work; settings: Supplementary Table 1; ref 10.1021/acs.jmedchem.7b01231; cited from earlier work
PfMDH [2] = molecular target: T1, PfMDH; assay: Small-angle X-ray scattering (SAXS) of PfMDH with compounds; settings: 1 mM compound; for radius of gyration Rg of PfMDH in complex: apo PfMDH 33.78 ± 5.51
Protocol: X-ray scattering experiments were performed using the laboratory SAXS system Xeuss 2.0 (XENOCS, Grenoble, France) equipped with a MetalJet D2 microfocus X-ray generator (0.134 nm wavelength). The protein solution at a concentration of 2.49 mg ml^−1 was mixed with 4PA derivatives at a concentration of 1 mM, incubated for 1 h at room temperature, and spun at 16,000 rpm (Eppendorf Centrifuge 5415R) to remove any potential aggregates prior to injection into the low-noise liquid sample cell. SAXS data were collected in 3–4 subsequent 10 min long frames using a Pilatus3R 1 M hybrid photon counting detector (Dectris, Switzerland). Data reduction and buffer subtraction procedures were performed using the Foxtrot package. Scattering profiles were assessed for radiation-damaged and averaged. Structural parameters were calculated in Primus from the ATSAS package. The distance distribution function was calculated using GNOM[58].

PfMDH [3] = molecular target: T1, PfMDH; assay: Dynamic light scattering (DLS), aggregation; settings: PfMDH samples incubated with compound
Protocol: Measurements were performed on Litesizer 500 (Anton Paar). Samples were incubated with the highest concentrations of compounds for 2 h at room temperature. Prior to measurements, samples were spun for 5 min at 16,000 rpm (Eppendorf Centrifuge 5415R) to remove aggregates.

[4] = Precipitation / turbidity of compound in assay buffer (600 nm); type: physicochemical; settings: activity screening buffer, 500 µM
Protocol: 1.3 µL of derivatives of 4-phenylthiazol-2-amine in 100% DMSO were mixed with 237.7 µL of a mastermix of WT PfMDH previously incubated with NAD+. The final compound concentration used in this screening was 500 µM in the presence of 0.5% (v/v) DMSO. The microplate was sealed with silver foil for 1-h incubation at 25–35 °C. Finally, reactions in both the samples and control wells were started upon the addition of 13.0 µL of 5 mM malate). At the end of the experiments, the reaction of the plate was spectrophotometrically assayed at 600 nm in order to identify turbidity due to the low solubility of the compound. All measurements were performed in duplicate.

MDH = settings: cited from earlier work
[5] = ref 10.1021/acs.jmedchem.7b01231

T1 sequence (Q6VVP7 entry or part of it): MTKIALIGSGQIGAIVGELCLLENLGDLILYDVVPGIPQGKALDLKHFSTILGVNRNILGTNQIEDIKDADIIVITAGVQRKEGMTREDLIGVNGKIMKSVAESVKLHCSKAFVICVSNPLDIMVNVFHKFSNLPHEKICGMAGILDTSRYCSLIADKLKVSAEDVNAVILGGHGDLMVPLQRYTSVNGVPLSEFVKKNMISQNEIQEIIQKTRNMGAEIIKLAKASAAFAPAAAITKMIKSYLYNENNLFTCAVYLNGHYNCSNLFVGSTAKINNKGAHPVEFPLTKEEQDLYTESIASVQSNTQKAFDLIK

Compound: O=C(O)C(=O)Nc1ccc(CCOc2cc(O)c3c(=O)cc(C(=O)O)oc3c2)cc1 [Inhibitor 2]
- IC50 (PfMDH [1]): > 241 µM

Compound: COc1cc(CCOc2cc(O)c3c(=O)cc(C(=O)O)oc3c2)ccc1NC(=O)C(=O)O [Inhibitor 4]
- IC50 (PfMDH [1]): > 225 µM

Compound: O=C1Cc2c([nH]c3ccc(Br)cc23)-c2ccccc2N1Cc1ccc(Cl)c(Cl)c1 [Inhibitor 4h]
- IC50 (HsMDH2; ref 10.1016/j.ejmech.2009.10.018): 1100 ± 100 nM

Compound: COc1ccc(CNC(=O)c2cc(=O)c3c(O)cc(OCCc4ccc(NC(=O)C(=O)O)c(OC)c4)cc3o2)cc1 [Inhibitor 7]
- IC50 (PfMDH [1]): 2.66 ± 0.24 µM

Compound: COC(=O)c1cccc(NC(=O)CCCOc2ccc(C(C)(C)CC(C)(C)C)cc2)c1 [Inhibitor 14b]
- IC50 (HsMDH1): 1180 ± 80 nM
- IC50 (HsMDH2; [5]): 1110 ± 10 nM

Compound: COC(=O)c1ccc(O)c(NC(=O)CCCOc2ccc(C(C)(C)CC(C)(C)C)cc2)c1 [Inhibitor 14c]
- IC50 (HsMDH2; [5]): 1110 ± 10 nM

Compound: COC(=O)c1cccc(NC(=O)CCOc2ccc(C(C)(C)CC(C)(C)C)cc2)c1 [Inhibitor 16c]
- IC50 (HsMDH1): 1070 ± 70 nM
- IC50 (HsMDH2; [5]): 1060 ± 30 nM

Compound: NC(=O)C(=O)O [Oxamate]
- IC50 (PfMDH [1]): > 2000 µM

Compound: Nc1nc(-c2ccc([N+](=O)[O-])cc2)cs1 [compound 2a]
- radius of gyration Rg of PfMDH in complex (PfMDH [2]): 33.78 ± 0.83 Å and 33.8 Å
- aggregation in DLS (PfMDH [3]): no aggregation in DLS
- precipitation of compound in the buffer [4]: precipitation of compound was observed

Compound: Nc1nc(-c2ccc(Br)cc2)cs1 [compound 6a]
- Rg from Dmax analysis (PfMDH [2]; apo 33.93 ± 4): 34.52 ± 4.3 Å
- Dmax (PfMDH [2]; apo 104.75): 113.74 Å
- MW estimate of PfMDH complex (PfMDH [2]; apo 113.65): 91.175 kDa
- radius of gyration Rg of PfMDH in complex (PfMDH [2]): 36.4 ± 3.15 Å and 36.4 Å
- aggregation in DLS (PfMDH [3]): no aggregation in DLS
- precipitation of compound in the buffer [4]: precipitation of compound was observed

Compound: O=c1c(O)c(-c2ccc(O)c(O)c2)oc2cc(O)cc(O)c12 [quercetin]
- IC50 (MDH): 6 µM

Compound: CC(=O)c1c(O)c(C)c(O)c(Cc2c(O)c3c(c(C(=O)/C=C/c4ccccc4)c2O)OC(C)(C)C=C3)c1O [rottlerin]
- IC50 (MDH): 0.7 µM
